# According to patent US20110207811A1, “USE OF CELIVARONE FOR REDUCING OCCURRENCES OF CARDIOVASCULAR HOSPITALIZATION” (SANOFI-AVENTIS, priority 2010, published 2011):
# Tested on: ICD patients with a LVEF of 40% or less
# Experiment: clinical study ALPHEE: prevention of cardiovascular hospitalization
# Format: in vivo
# Conditions: clinical trial using amiodarone as calibrator; oral, with a meal
# Text: The primary objective of the study is to assess the efficacy of celivarone for the prevention of ICD interventions or death. The study also aims at assessing the usefulness of celivarone for reducing occurrences of cardiovascular hospitalization in treated patients.
# This is a dose-finding multicenter, multinational, randomized, double blind, placebo controlled, parallel arm study including a positive control calibrator arm. Patients are randomized to one of three doses of celivarone or placebo or to the amiodarone calibrator arm.
# The efficacy of celivarone is based on data regarding appropriate ICD intervention obtained by regular ICD interrogation, performed as described below, as well as on data regarding death of the randomized patients, in particular sudden death, and on data regarding cardiovascular hospitalization occurrences.
# The study includes a one week screening period, followed by a treatment period scheduled for a minimum duration of 6 months for the last patient recruited and going from the first day of treatment to the end of treatment visit to be done 10-15 days prior to the scheduled study end date. […]
# Cardiovascular hospitalization is an hospitalization with a cardiovascular cause, as assessed by the investigator. […]
smiles,measurement,value
"CCCCc1oc2ccc(C(=O)OC(C)C)cc2c1C(=O)c1ccc(CCCN(CCCC)CCCC)cc1.O=C(O)/C=C/C(=O)O [celivarone, 2-butyl-3-[4-[3-(dibutylamino)propyl]benzoyl]-1-benzofuran-5-carboxylic acid isopropyl ester fumarate]",prevention of cardiovascular hospitalization,effective
